This note sets out measurements from ChEMBL document CHEMBL2163222 (J Med Chem, 2012).

In one test the test system is NCI-H460. In words: Growth inhibition of human NCI-H460 cells at 10 uM by NCI-60 cell inhibition assay. In kind it is functional. The settings on record: read-out: GI.
In the next test the test system is Hs 683. In words: Inhibition of eIF2 activity in human Hs683 cells at 0.5 uM after 4 hrs by Western blotting method. In kind it is functional, cell-based. A general note: Immunoblotting shows a protein as a band on a membrane.
Another test concerns A549. In words: Growth inhibition of human A549/ATCC cells at 10 uM by NCI-60 cell inhibition assay. In kind it is functional. Particulars: read-out: GI.
A further test has as its system 786-0. In words: Growth inhibition of human 786-0 cells at 10 uM by NCI-60 cell inhibition assay. In kind it is functional. Particulars: read-out: GI.
For another test, the system named is NCI-H322M. In words: Growth inhibition of human NCI-H322M cells at 10 uM by NCI-60 cell inhibition assay. In kind it is functional. The settings on record: read-out: GI.
The test system of a further test is K562. In words: Growth inhibition of human K562 cells at 10 uM by NCI-60 cell inhibition assay. In kind it is functional. Particulars: read-out: GI.
A further test has as its system TK-10. In words: Growth inhibition of human TK10 cells at 10 uM by NCI-60 cell inhibition assay. In kind it is functional. The settings on record: read-out: GI.
The nature of test [1]: Inhibition of eIF2 protein expression in human U373 cells at 0.5 uM after 4 hrs by Western blotting method. In kind it is functional, cell-based. Particulars: U-373MG ATCC.
For another test, the system named is HT-29. In words: Growth inhibition of human HT-29 cells at 10 uM by NCI-60 cell inhibition assay. In kind it is functional. Particulars: read-out: GI.
Another test deals with SK-MEL-2. In words: Growth inhibition of human SK-MEL-2 cells at 10 uM by NCI-60 cell inhibition assay. In kind it is functional. The settings on record: read-out: GI.
In the next test the test system is M14. In words: Growth inhibition of human M14 cells at 10 uM by NCI-60 cell inhibition assay. In kind it is functional. The settings on record: read-out: GI.
A further test has as its system Malme-3M. In words: Growth inhibition of human MALME-3M cells at 10 uM by NCI-60 cell inhibition assay. In kind it is functional. Particulars: read-out: GI.
The subject of a further test is SF-268. In words: Growth inhibition of human SF268 cells at 10 uM by NCI-60 cell inhibition assay. In kind it is functional. The settings on record: read-out: GI.
The test system of a further test is KM12. In words: Growth inhibition of human KM12 cells at 10 uM by NCI-60 cell inhibition assay. In kind it is functional. Particulars: read-out: GI.
The subject of another test is CAKI-1. In words: Growth inhibition of human Caki1 cells at 10 uM by NCI-60 cell inhibition assay. In kind it is functional. Particulars: read-out: GI.
Test [2] has as its target Dual specificity tyrosine-phosphorylation-regulated kinase 1A (Homo sapiens, UniProt Q13627). In words: Inhibition of DYRK1A kinase using RBER-CHKtide substrate by radiometric protein kinase assay.
The next test has as its system CCRF-CEM. In words: Growth inhibition of human CCRF-CEM cells at 10 uM by NCI-60 cell inhibition assay. In kind it is functional. The settings on record: read-out: GI.
A further test has as its system OVCAR-5. In words: Growth inhibition of human OVCAR5 cells at 10 uM by NCI-60 cell inhibition assay. The settings on record: read-out: GI. In kind it is functional.
A further test has as its system OE33. In words: Growth inhibition of human OE33 cells after 3 days by MTT assay. In kind it is functional, cell-based. The settings on record: OE33, 72 h. A general note: Formazan colour is commonly taken as a measure of viable cells.
Test [3] can be described thus: Growth inhibition of human NCI-ADR-RES cells at 10 uM by NCI-60 cell inhibition assay. Particulars: read-out: GI. In kind it is functional.
The next test relates to SF-539. In words: Growth inhibition of human SF539 cells at 10 uM by NCI-60 cell inhibition assay. In kind it is functional. Particulars: read-out: GI.

SMILES strings stand for the structures. The source made the active and inactive calls. No cut-off for these calls is given here.

For the compound `Cc1c2c(cc[n+]1Cc1ccccc1)c1ccc(OCC3CCCCC3)cc1n2CC1CCCCC1.[Br-]`, the inhibition of growth at 10 µM with NCI-H460 is -93.4%; in the test with A549 it was -93.1%; with 786-0 it was -91.3%; in the test on NCI-H322M it was -83.2%; in the test with K562, -45.9%; with TK-10, -93.6%. Besides, the inhibition of growth at 10 µM with HT-29 was -79%; in the test with SK-MEL-2 it was -86.5%; with M14 it was -84.6%; in the test on Malme-3M, -70.3%; with SF-268, -98.7%; with KM12, -99.9%. Besides, the inhibition of growth at 10 µM in the test on CAKI-1 was -92.5%; with CCRF-CEM it was -36.2%; with OVCAR-5, -95.5%; in test [3], 31.5%; with SF-539, -85.2%. The inhibition result (with Hs 683; in test [1]) was “inactive” in each case. Besides, the half-maximal inhibitory concentration (IC50) (usually the concentration that inhibits the measured activity by half) came out at 43000 nM in [2] and 370 nM with OE33.

In the case of `Cc1c2c(cc[n+]1Cc1ccccc1)c1ccc(OCc3ccccc3)cc1n2Cc1ccccc1.[Br-]`, the inhibition of growth at 10 µM with NCI-H460 was -87.5%; in the test on A549, 4.01%; in the test on 786-0, -87.4%; in the test on NCI-H322M, -26.9%; with K562, -25%; with TK-10 it was 11.8%. For the same compound, the inhibition of growth at 10 µM was -48.6% in the test on HT-29; -36% in the test with SK-MEL-2; -87.9% in the test with M14; -73.6% in the test with Malme-3M; -90.4% in the test with SF-268; -98.4% in the test on KM12. In addition, the inhibition of growth at 10 µM in the test on CAKI-1 is -5.76%; in the test with CCRF-CEM, -16.2%; in the test with OVCAR-5, 13.5%; in test [3], 65%; in the test on SF-539 it was -5.52%. Moreover, the inhibition entry (in the test on Hs 683; in test [1]) was “Active” each time. For the same compound, inhibition in the test with OE33 was half-maximal at 700 nM (IC50).
